Legend:
primary rat hepatocytes = assay: Synthesis of non-saponified and saponified lipids (14C-acetate incorporation) in hepatocytes; format: cell-based; details: 100 μM; 14C-acetate 2 hr; vs no compound control
Description: A male Sprague-Dawley rat was anesthetized by administration of sodium pentobarbitol by intraparitoneal injection at 50 mg/kg. In situ perfusion of the liver was performed as follows. […] To digest the liver, DSC solution (6.7 mM KCl, 143 mM NaCl, 9.2 mM Na HEPES, 5 mM CaCl2-2H2O, 1.7 mM Fructose, 0.029 mM Phenol red, 0.2% BSA, 100 U/ml collagenase Type I, 93 U/ml Hyaluronidase, 160 BAEE/ml trypsin inhibitor, pH 7.5) was perfused through the liver at a flow rate of 30 ml/min for 6 minutes at a temperature of 37° C. After digestion, cells were dispersed in a solution of DMEM-(DMEM containing 2 mM GlutMax-1, 0.2% BSA, 5% FBS, 12 nM insulin, 1.2 μM hydrocortisone) to stop the digestion process. The crude cell suspension was filtered through three layers of stainless steel mesh with pore sizes of 250, 106, and 75 μm respectively. Filtered cells were centrifuged at 50×g for two minutes and the supernatant discarded. The resulting cell pellet was resuspended in DMEM and centrifuged again. This final cell pellet was resuspended in DMEM+HS solution (DMEM containing 2 mM GlutMax-1, 20 nM delta-aminolevulinic acid, 17.4 mM MEM non-essential amino acids, 20% FBS, 12 nM insulin, 1.2 µM hydrocortisone) and plated to form monolayer cultures at a density of 100×10^3 cells/cm^2 on collagen coated culture dishes. Four hours after initial plating, media was changed to DMEM+(DMEM containing 2 mM GlutMax-1, 20 nM delta-aminolevulinic acid, 17.4 mM MEM non-essential amino acids, 10% FBS, 12 nM insulin, 1.2 μM hydrocortisone) and remained on cells overnight.
To test the effect of illustrative compounds of the invention on synthesis rates of non-saponified and saponified lipids, the monolayer cultures were exposed to 1 μM of lovastatin or 100 μM Compound A, B, D, E or F in DMEM+ containing 1 μCi/ml ^14C-acetate. Control cells were exposed to the same media lacking lovastatin or the test compounds. All cells were exposed to 0.1% DMSO. Metabolic labeling with ^14C-acetate continued for 2 hr at 37° C. After labeling, cells were washed twice with 1 ml of PBS followed by lysing in 1 ml of deionized water. Cells were scraped from the dishes, transferred to glass tubes and sonicated. 2.5 ml of 2:1 chloroform/methanol mixture was added followed by 1.5 ml of Phosphate Buffered Saline (PBS). To correct for extraction efficiency in the upcoming extractions, 3000 dpm of ^3H-cholesterol was added to each tube. Tubes were shaken for 30 min. to extract lipids into the organic phase followed by centrifugation for 10 minutes at 1000×g to separate the organic and aqueous phases. The lower organic phase containing total lipids was removed and placed in a new tube. The organic solution was evaporated under N2. […]

3T3-L1 cells = assay: Insulin sensitization: 14C-acetate incorporation into lipids in 3T3-L1 preadipocytes; format: cell-based; details: preadipocytes treated 4 days; insulin-dependent (30 nM insulin); FIG. 20
Description: The effects of Compound A on rate of differentiation of 3T3-L1 cells from a “committed pre-adipocyte” to an “adipocyte” phenotype in the absence or presence of insulin is tested. The differentiation of 3T3-L1 cells to an adipocyte-like phenotype is highly dependent upon insulin. […] In this assay the degree of differentiation was a reflection of the rate of lipid synthesis, as measured through incorporation of ^14C-acetate over 2 hours.
3T3-L1 stem cells were induced to differentiate with dexamethasone, isobutylmethylxanthine and insulin (Green and Kehinde, 1975, Cell 5:19-27). Cells were plated in Dulbecco's modified Eagle medium containing 10% calf serum and grown to confluence. Cells were then refreshed with 10% fetal calf serum, and treated with 0.5 mM isobutylmethylxanthine and 250 nM dexamethasone, but no additional insulin, for 48 hours. […]
The preadipocytes were then treated for 4 days with various concentrations of Compound A in 5% fetal calf serum in Dulbecco's modified Eagles medium, with or without a submaximal concentration of insulin (30 nM). […] Cell were then washed with phosphate buffered saline, lysed with 0.1 N NaOH, and ^14C-acetate incorporation into lipids was determined using phase separation and liquid scintillation counting.

[1] = test system: LDL receptor deficient mice; assay: Lipoprotein cholesterol profile in LDL receptor-deficient mice; format: in vivo; details: 300 mg/kg/day, chow-fed female mice
Excerpt: The effect of Compound A on LDL levels in a murine model of homozygous familial hypercholesterolemia (Ishibashi et al., 1993, J. Clin. Invest. 92:883-893; Ishibashi et al., 1994, J. Clin. Invest. 93:1885-1893) was studied. LDL receptor-deficient mice have elevated LDL cholesterol relative to wild type mice when fed a chow diet. When fed cholesterol-enriched diets, these mice develop atherosclerosis.

CC(C)(CO)CCCCOCCCCC(C)(C)CO [Compound A, 6-(6-hydroxy-5,5-dimethylhexyloxy)-2,2-dimethyl-hexan-1-ol]
reduction of the rate of non-saponified lipid synthesis (primary rat hepatocytes): at least 85%
reduction of the rate of saponified lipid synthesis (primary rat hepatocytes): at least 85%
increase of 14C-acetate incorporation into lipids (3T3-L1 cells): approximately 40%
LDL cholesterol ([1]; after one week of treatment): rapid and significant reduction
HDL ([1]; seven daily treatments): HDL elevation in all treated mice
